Literature values as cited in US20250268950A1, “PRENATAL SUPPLEMENT” (Arizona Board of Regents on Behalf of Arizona State …, priority 2021, published 2025).
Like-named read-outs stand apart in the source and are kept apart here.

Columns and labels:
[1] = for blood niacin lower than healthy non-pregnant controls: 20 mg/day, 563 US women
[2] = Table 12
[3] = Cochrane, ≥1 g/day, 13 studies, 15,730 women
[4] = meta-analysis of 27 trials, 28,492 women
[5] = one or more maternal doses of 10 mg
[6] = meta-analysis of 7 studies, 5-10 mg, usually repeated, imminent very preterm birth
[7] = meta-analysis of seven RCTs, women with gestational diabetes

Compound: O=C(O)CCCC[C@@H]1SC[C@@H]2NC(=O)N[C@@H]21 [Biotin]
- biotin levels ([1]; 30 mcg/day supplemental): sufficient to slightly increase levels of biotin above that of healthy controls
- treatment of biotin deficiency ([1]; 300 mcg/day for two weeks): sufficient to treat the deficiency

Compound: [Ca] [Calcium]
- incidence of pregnancy-induced hypertension (pregnant women; 120 mg (18% in control group)): 8.9%
- incidence of pregnancy-induced hypertension (pregnant women; 240 mg (18% in control group)): 7.5%
- incidence of pregnancy-induced hypertension (pregnant women; 1000 mg (18% in control group)): 8%
- incidence of pregnancy-induced hypertension (pregnant women; 2000 mg (18% in control group)): 4%
- cases of HELLP (pregnant women; 1500-2000 mg/day, two trials, 12,901 women (vs. 6 un-supplemented)): 16
- risk of preeclampsia, RR (pregnant women; Cochrane, low-dose <1 g/day, 10 trials, 2234 women): 0.38
- maternal death or serious morbidity, RR (pregnant women; Cochrane, ≥1 g/day): 0.80
- risk of high blood pressure, RR (pregnant women; [3]): 0.65
- risk of preeclampsia, RR (pregnant women; [3]): 0.45
- rate of proteinuric PIH (pregnant women; Hong Kong, 600 mg weeks 22-32, 1200 mg/day to birth (vs. 10.7% placebo)): 5.6%
- rate of non-proteinuric PIH (pregnant women; Hong Kong, 600 mg weeks 22-32, 1200 mg/day to birth (vs. 24% placebo)): 15%
- reducing risk of preeclampsia, PIH, and hypertension (pregnant women; Trinidad, 510 women, 1200 mg): much more effective than 600 mg of calcium plus aspirin
- gestational hypertension, RR (pregnant women; [4]): 0.70
- risk of preeclampsia, RR (pregnant women; [4]): 0.51
- preterm birth, RR (infants; Cochrane, ≥1 g/day): 0.76
- risk of ASD, OR (infants; retrospective study in China): 0.48

Compound: C[N+](C)(C)CCO [Choline]
- Tolerable Upper Limit for Pregnant Women [2]: 3500 mg/day
- safety (pregnant women; 900 mg/day of choline (as phosphatidylcholine)): safe

Compound: CC/C=C\C/C=C\C/C=C\C/C=C\C/C=C\C/C=C\CCC(=O)O [DHA, Docosahexaenoic acid]
- increase of RBC DHA ([1]; 300 mg/day (controls decreased 10%)): 7%
- increase of RBC DHA ([1]; 600 g/day group (so in the source)): 21%

Compound: Nc1nc2ncc(CNc3ccc(C(=O)N[C@@H](CCC(=O)O)C(=O)O)cc3)nc2c(=O)[nH]1 [Folate]
- serum folate levels at postpartum ([1]; 355 mcg plus iron supplement, Scotland): sufficient to maintain median serum folate levels at postpartum that were equivalent to that of healthy non-pregnant women

Compound: [Fe] [Iron]
- subjects in whom iron deficiency anemia was reduced (pregnant women; 60 mg 3×/day (180 mg total), 12 participants with IDA): 75%
- reduction of iron-deficiency anemia at term (pregnant women; meta-analysis, 6 trials, 1088 women): 67%
- reduction of iron deficiency at term (pregnant women; meta-analysis, 7 trials, 1256 women): 57%
- reduction of maternal anemia at term (pregnant women; meta-analysis, 14 trials, 2199 women, mostly 30-200 mg/day): 70%
- megaloblastic anemia (pregnant women; only iron (11% unsupplemented)): 6%

Compound: O=C(O)c1cccnc1 [Niacin]
- blood niacin lower than healthy non-pregnant controls ([1]; first trimester): 29%
- blood niacin lower than healthy non-pregnant controls ([1]; second trimester): 35%
- blood niacin lower than healthy non-pregnant controls ([1]; third trimester): 38%

Compound: Cc1cc2nc3c(=O)[nH]c(=O)nc-3n(C[C@H](O)[C@H](O)[C@H](O)CO)c2cc1C [Riboflavin]
- cases of severe preeclampsia (pregnant women; 15 mg/day, Venezuela): significant decrease in the number of cases of severe preeclampsia

Compound: [Se] [Selenium]
- reduction of odds of preeclampsia or PIH (pregnant women; 60 i.g/day, 230 women in the UK): 65%
- pregnancy-induced hypertension (pregnant women; 100 i.g during last 6-8 weeks, women at risk (vs. 23%)): 8%
- gestational edema (pregnant women; 100 i.g during last 6-8 weeks, women at risk (vs. 33%)): 15%
- postpartum depression (pregnant women; 100 i.g/day): treat postpartum depression
- existing gestational edema cured (pregnant women; 100 i.g, 26 cases (1 out of 13 with placebo)): 88%
- glucose, insulin, CRP, oxidative stress (pregnant women; 200 i.g/day for 6 weeks, 70 women with gestational diabetes): significant improvements in fasting glucose, serum insulin, C-reactive protein, and oxidative stress
- rate of permanent hypothyroidism (pregnant women; 200 i.g/day, women at high risk (vs. 20%)): 12%
- rate of postpartum thyroid deficiency (pregnant women; 200 i.g/day, women at high risk (vs. 49%)): 29%

Compound: Cc1ncc(C[n+]2csc(CCO)c2C)c(N)n1 [Thiamine]
- effect on glucose tolerance and intra-uterine growth (pregnant women; supplementation in pregnant women): improves their glucose tolerance, and stimulates intra-uterine growth
- thiamine levels lower than non-pregnant women ([1]; multi-vitamin containing 3 mg, 563 pregnant women): approximately 31%

Compound: [Zn] [Zinc]
- reduction in chance of infant impetigo (infants; 30 mg/day): 54%
- preterm birth, RR (infants; meta-analysis of 16 randomized, controlled trials, mostly 20-30 mg): 0.86

Compound: CC1=C(/C=C/C(C)=C/C=C/C(C)=C/C=C/C=C(C)/C=C/C=C(C)/C=C/C2=C(C)CCCC2(C)C)C(C)(C)CCC1 [beta-carotene]
- benefit on night blindness compared with vitamin A (pregnant women; Nepal): about half as much benefit
- risk of anemia, RR (pregnant women; meta-analysis of 8 studies, supplementation): 0.81

Compound: Nc1nc2ncc(CNc3ccc(C(=O)N[C@@H](CCC(=O)O)C(=O)O)cc3)nc2c(=O)[nH]1 [folic acid]
- prevalence of gestational diabetes (pregnant women; women with PCOS, folic acid only 1.5 mg): 54%
- average blood folate level ([1]; 1000 mcg/day, each trimester, 563 US women (10 ng/ml in controls)): 25 to 26 ng/mL
- risk of ASD in the child, RR (infants; meta-analysis of 6 prospective studies, maternal supplementation): 0.64
- NTDs, OR (infants; meta-analysis, multi-vitamin supplement containing folic acid): 0.67

Compound: O=S(=O)([O-])[O-].[Mg+2] [magnesium sulfate, reference compound]
- maternal complications (pregnant women; 4-6 g intravenously): no major complications
- reduction of risk of cerebral palsy (infants; 4-6 g intravenously, mothers at high risk of preterm birth, meta-analysis of five studies): approximately 32%

Compound: CC1=C(C/C=C(\C)CCC[C@H](C)CCC[C@H](C)CCCC(C)C)C(=O)c2ccccc2C1=O [phylloquinone]
- infant plasma vitamin K as % of formula-fed infants ([1]; lactating mothers 5 mg/day, infants 1 mg intramuscularly at birth): 50%

Compound: C[Se]CC[C@H](N)C(=O)O [selenome-thionine, selenomethionine]
- preeclampsia or preterm birth vs placebo (pregnant women; 100 i.g/day, randomized trial of 169 women): no significant differences were seen for either preeclampsia or preterm birth

Compound: CC(=O)[O-].CC(=O)[O-].[Zn+2] [zinc acetate]
- benefit of zinc form (infants; two studies): not beneficial

Compound: CC(O)C(=O)[O-].CC(O)C(=O)[O-].[Zn+2] (stereo not drawn) [zinc lactate]
- serum zinc ([1]; 30 mg): enough to slightly increase zinc levels
- low birth weight, preterm birth, intrauterine growth retardation (infants; 30 mg/day): great improvements in the incidence of low birth weight, preterm birth, and intrauterine growth retardation
- benefit (infants; doses of 5 and 10 mg): no benefit

Compound: O=S(=O)([O-])[O-].[Zn+2] [zinc sulfate]
- decrease of serum zinc, week 17 to week 31-36 ([1]; 20 mg, 138 Hispanic teenagers (14% non-supplemented)): 8%
- decrease of plasma zinc from beginning to end of pregnancy ([1]; 25 mg/day, U.S. women with low initial plasma zinc (11% un-supplemented)): 7%
- zinc levels ([1]; averaging 11 mg/day, U.S.): little effect on plasma levels but did increase hair and possibly saliva levels
- infant birth weight and head circumference (infants; 25 mg/day, women with relatively low plasma zinc): greater infant birth weights and head circumferences

Compound: Cobalamin [Vitamin B12]
- levels lower at end of pregnancy vs healthy non-pregnant controls ([1]; 12 mcg/day, US): 38%
- maternal and infant B12 levels ([1]; 50 mcg/day during pregnancy and early lactation, India): significant increases in maternal B12 levels in blood and breastmilk, and infant levels of B12
- vitamin B12 levels during pregnancy ([1]; approximately 3× the RDA (diet 6 mcg + supplements 2.6 mcg), 26 women): enough to stabilize vitamin B12 levels during pregnancy
- decrease in serum B12 by third trimester vs first ([1]; total consumption of 2× the RDA): 30%

Compound: Vitamin K
- vitamin K level in the infant vs un-supplemented controls, times higher [1, 5]: 2
- vitamin K level in the mother vs un-supplemented controls, times higher [1, 5]: 100
- vitamin K level ([1]; pregnant women with previous bariatric surgery, 10 mg per week): normal or above-normal level of vitamin K
- risk of childhood cancer (infants; meta-analysis of 6 studies, infantile supplementation): no risk of childhood cancer
- brain bleeding, RR (non-significant) (infants; [6]): 0.76
- severe brain bleeding, RR (infants; [6]): 0.58

Compound: calcium pantothenate
- blood levels of pantothenic acid ([1]; 10 mg/day): slightly higher blood levels of pantothenic acid compared to non-pregnant controls
- bound pantothenic acid as % of levels in controls ([1]; 60 mg from 4.5 months gestation, at 7.5 months): 59%
- free pantothenic acid vs controls, fold higher ([1]; 60 mg from 4.5 months gestation, at 7.5 months and at term): 2
- bound pantothenic acid as % of levels in controls ([1]; 60 mg from 4.5 months gestation, at term): 104%

Compound: magnesium gluconate
- rate of pregnancy-induced hypertension (pregnant women; 184 mg/day): substantially reduced the rate of pregnancy-induced hypertension

Compound: omega-3 fatty acids
- risk of preeclampsia, RR (pregnant women; meta-analysis of 14 supplementation studies): 0.82
- preeclampsia, RR (possibly reduced) (pregnant women; meta-analysis of 70 RCTs): 0.84
- reduction of depression, SMD (pregnant women; meta-analysis of eight studies, 638 women with perinatal depression, 1-6 g/day): 0.65
- prevention of perinatal depression (pregnant women; meta-analysis of prophylactic supplementation studies): did not demonstrate a significant benefit
- HOMA-IR, std. MD (pregnant women; [7]): −0.52
- fasting plasma glucose, std. MD (pregnant women; [7]): −0.56
- high-sensitivity CRP, std. MD (pregnant women; [7]): −1.14
- neonatal care admissions, RR (possibly fewer) (infants; meta-analysis of 70 RCTs): 0.92
- perinatal death, RR (possibly reduced) (infants; meta-analysis of 70 RCTs): 0.75
- macrosomia, RR (possible) (infants; [7]): 0.48
- newborns' hyperbilirubinemia, RR (possible) (infants; [7]): 0.46
- prolonged gestation (>42 weeks), RR (infants; meta-analysis, 6 RCTs, 5141 participants): 1.61
- early preterm birth (<34 weeks), RR (infants; meta-analysis, 9 RCTs, 5204 participants): 0.58
- low birth weight, RR (infants; meta-analysis, 15 trials, 8449 participants): 0.90
- preterm birth (<37 weeks), RR (infants; meta-analysis, 26 RCTs, 10,304 participants): 0.89
- mean increase in length of gestation (infants; meta-analysis, 41 trials, 12,517 participants): 1.67 days
